Data as given in ChEMBL document CHEMBL5291721, “A preclinical secondary pharmacology resource illuminates target-adverse drug reaction associations of marketed drugs” (Nat Commun, 2023).

What was measured:
[1] = target: T1, D(3) dopamine receptor (Homo sapiens, UniProt P35462)
[2] = target: T2, Adenosine receptor A3 (Homo sapiens, UniProt P0DMS8)
T2 sequence (P0DMS8 whole entry): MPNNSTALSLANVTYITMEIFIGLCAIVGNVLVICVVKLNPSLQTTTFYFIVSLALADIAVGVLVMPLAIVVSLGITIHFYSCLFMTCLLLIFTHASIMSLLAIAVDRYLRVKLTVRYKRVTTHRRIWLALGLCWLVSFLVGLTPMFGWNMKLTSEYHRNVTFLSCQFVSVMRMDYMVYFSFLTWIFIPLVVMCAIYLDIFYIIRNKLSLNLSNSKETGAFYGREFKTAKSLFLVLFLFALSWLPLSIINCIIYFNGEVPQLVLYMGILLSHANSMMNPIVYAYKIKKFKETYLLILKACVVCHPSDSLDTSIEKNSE

[3] = target: T3, Muscarinic acetylcholine receptor M1 (Homo sapiens, UniProt P11229); format: functional, cell-based
T3 sequence (P11229 whole entry): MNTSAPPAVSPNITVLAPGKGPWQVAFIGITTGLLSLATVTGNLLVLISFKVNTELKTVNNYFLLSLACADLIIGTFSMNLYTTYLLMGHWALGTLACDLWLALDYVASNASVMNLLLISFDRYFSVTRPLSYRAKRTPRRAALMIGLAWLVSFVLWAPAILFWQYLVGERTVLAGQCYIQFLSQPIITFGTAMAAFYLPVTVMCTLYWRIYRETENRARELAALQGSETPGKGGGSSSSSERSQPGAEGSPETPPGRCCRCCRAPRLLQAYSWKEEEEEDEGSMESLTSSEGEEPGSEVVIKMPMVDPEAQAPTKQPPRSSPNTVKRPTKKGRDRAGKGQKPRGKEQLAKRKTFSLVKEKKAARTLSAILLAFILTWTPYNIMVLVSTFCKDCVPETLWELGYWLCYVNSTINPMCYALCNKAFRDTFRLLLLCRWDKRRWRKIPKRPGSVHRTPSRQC

[4] = target: Kappa-type opioid receptor (Homo sapiens, UniProt P41145)
[5] = target: Growth hormone secretagogue receptor type 1 (Homo sapiens, UniProt Q92847)
[6] = target: 3',5'-cyclic-AMP phosphodiesterase 4A (Homo sapiens, UniProt P27815); format: functional
[7] = target: Melanocortin receptor 3 (Homo sapiens, UniProt P41968)
[8] = target: Neuronal acetylcholine receptor subunit alpha-4 (Homo sapiens, UniProt P43681)
[9] = target: T4, Adenosine receptor A1 (Homo sapiens, UniProt P30542)
T4 sequence (P30542 whole entry): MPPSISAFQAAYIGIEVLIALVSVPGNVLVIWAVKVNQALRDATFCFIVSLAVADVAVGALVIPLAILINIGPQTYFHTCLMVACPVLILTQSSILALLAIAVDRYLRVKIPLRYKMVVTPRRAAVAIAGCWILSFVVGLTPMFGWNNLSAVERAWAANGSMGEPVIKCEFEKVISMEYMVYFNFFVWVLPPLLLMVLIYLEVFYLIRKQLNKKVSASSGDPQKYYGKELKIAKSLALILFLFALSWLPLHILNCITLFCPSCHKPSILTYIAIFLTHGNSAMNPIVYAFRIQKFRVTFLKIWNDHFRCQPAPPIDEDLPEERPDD

[10] = target: T5, Muscarinic acetylcholine receptor M2 (Homo sapiens, UniProt P08172)
T5 sequence (P08172 whole entry): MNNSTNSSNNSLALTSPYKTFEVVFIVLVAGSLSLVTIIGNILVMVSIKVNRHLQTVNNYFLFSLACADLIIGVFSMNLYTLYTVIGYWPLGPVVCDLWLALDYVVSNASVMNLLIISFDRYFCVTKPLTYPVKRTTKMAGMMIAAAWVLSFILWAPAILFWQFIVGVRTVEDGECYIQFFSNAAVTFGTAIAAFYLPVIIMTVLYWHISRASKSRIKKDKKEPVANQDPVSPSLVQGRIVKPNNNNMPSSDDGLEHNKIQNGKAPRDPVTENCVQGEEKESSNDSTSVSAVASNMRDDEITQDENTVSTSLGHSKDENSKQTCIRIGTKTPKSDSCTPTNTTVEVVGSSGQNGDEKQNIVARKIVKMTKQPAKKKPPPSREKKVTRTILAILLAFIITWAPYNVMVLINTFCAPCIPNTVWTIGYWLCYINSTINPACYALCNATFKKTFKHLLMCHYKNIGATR

[11] = target: T6, 5-hydroxytryptamine receptor 2C (Homo sapiens, UniProt P28335)
T6 sequence (P28335 whole entry): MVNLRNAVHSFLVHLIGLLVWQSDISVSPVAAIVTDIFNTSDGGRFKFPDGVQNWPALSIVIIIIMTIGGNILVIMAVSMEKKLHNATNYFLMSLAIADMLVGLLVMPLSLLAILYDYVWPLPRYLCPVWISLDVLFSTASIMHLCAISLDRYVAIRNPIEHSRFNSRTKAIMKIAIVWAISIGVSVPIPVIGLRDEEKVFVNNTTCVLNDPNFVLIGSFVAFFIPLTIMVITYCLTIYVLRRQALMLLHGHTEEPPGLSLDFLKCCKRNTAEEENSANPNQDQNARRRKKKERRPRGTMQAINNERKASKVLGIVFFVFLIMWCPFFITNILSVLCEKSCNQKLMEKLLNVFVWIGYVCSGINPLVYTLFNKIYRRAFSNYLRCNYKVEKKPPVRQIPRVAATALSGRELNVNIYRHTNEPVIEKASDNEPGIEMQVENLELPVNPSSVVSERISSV

[12] = target: T1, D(3) dopamine receptor; remark: listed apart in the source
Further: assay procedure not described here.

Sequence of 3',5'-cyclic-AMP phosphodiesterase 4A (P27815 whole entry): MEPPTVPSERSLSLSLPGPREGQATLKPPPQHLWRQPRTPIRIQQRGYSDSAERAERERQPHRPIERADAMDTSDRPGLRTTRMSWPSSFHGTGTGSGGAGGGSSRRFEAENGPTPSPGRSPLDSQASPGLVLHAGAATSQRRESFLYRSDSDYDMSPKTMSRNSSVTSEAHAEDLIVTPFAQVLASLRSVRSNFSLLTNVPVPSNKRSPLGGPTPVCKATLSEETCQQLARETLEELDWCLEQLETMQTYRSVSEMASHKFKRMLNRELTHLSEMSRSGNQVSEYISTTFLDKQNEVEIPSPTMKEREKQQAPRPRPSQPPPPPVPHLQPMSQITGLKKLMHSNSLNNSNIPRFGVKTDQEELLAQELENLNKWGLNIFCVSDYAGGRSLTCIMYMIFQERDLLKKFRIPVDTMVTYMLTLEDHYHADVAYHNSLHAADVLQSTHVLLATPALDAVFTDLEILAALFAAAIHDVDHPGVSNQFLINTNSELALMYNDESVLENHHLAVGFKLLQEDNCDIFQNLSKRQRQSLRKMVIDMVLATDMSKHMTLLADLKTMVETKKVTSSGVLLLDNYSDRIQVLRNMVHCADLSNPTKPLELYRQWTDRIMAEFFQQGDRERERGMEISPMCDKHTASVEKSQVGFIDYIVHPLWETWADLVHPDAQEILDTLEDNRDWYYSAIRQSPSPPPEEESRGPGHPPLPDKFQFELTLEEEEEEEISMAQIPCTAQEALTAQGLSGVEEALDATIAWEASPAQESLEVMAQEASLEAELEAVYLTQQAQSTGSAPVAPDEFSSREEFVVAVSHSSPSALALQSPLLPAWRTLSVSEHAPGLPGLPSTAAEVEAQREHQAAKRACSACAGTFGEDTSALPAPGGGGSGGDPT
T1 sequence (P35462 whole entry): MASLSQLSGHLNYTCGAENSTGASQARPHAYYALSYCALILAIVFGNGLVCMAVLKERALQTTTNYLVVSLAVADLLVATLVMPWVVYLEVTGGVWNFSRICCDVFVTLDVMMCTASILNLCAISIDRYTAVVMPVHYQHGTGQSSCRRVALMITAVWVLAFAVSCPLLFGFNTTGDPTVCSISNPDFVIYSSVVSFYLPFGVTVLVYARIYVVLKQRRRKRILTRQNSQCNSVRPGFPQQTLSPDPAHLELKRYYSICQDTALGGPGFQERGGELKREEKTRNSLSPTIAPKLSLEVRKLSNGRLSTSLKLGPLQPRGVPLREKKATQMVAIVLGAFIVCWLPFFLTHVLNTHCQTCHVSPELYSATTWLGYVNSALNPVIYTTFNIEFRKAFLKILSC
Sequence of Kappa-type opioid receptor (P41145 whole entry): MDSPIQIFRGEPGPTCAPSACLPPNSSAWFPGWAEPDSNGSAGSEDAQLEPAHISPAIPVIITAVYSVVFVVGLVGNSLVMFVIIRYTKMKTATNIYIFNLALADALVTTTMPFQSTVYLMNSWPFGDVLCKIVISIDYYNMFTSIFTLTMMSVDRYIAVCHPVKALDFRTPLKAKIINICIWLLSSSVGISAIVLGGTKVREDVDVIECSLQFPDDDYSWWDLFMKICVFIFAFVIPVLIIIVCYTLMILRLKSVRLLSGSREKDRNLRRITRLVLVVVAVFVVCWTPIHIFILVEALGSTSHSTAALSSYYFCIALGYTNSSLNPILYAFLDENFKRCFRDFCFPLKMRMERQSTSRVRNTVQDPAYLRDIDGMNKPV
Sequence of Growth hormone secretagogue receptor type 1 (Q92847 whole entry): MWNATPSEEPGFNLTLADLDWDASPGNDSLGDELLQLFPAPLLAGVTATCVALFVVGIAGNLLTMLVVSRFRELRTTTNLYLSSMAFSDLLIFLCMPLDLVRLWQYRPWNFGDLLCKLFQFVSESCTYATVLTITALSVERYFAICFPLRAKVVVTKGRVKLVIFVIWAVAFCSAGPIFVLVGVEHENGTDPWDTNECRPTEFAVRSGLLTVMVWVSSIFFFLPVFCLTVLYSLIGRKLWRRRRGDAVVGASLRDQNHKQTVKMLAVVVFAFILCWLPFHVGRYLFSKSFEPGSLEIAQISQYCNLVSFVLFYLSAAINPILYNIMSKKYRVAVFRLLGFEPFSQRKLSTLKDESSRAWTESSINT
Sequence of Melanocortin receptor 3 (P41968 whole entry): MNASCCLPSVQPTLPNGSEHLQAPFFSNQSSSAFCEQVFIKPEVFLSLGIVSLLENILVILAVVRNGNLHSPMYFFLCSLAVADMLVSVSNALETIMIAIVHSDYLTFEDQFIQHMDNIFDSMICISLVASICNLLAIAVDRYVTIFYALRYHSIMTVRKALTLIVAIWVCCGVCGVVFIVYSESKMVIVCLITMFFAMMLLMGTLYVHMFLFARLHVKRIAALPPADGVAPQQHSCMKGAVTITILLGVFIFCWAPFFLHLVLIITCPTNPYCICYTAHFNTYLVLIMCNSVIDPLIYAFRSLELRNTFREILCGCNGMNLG
Sequence of Neuronal acetylcholine receptor subunit alpha-4 (P43681 whole entry): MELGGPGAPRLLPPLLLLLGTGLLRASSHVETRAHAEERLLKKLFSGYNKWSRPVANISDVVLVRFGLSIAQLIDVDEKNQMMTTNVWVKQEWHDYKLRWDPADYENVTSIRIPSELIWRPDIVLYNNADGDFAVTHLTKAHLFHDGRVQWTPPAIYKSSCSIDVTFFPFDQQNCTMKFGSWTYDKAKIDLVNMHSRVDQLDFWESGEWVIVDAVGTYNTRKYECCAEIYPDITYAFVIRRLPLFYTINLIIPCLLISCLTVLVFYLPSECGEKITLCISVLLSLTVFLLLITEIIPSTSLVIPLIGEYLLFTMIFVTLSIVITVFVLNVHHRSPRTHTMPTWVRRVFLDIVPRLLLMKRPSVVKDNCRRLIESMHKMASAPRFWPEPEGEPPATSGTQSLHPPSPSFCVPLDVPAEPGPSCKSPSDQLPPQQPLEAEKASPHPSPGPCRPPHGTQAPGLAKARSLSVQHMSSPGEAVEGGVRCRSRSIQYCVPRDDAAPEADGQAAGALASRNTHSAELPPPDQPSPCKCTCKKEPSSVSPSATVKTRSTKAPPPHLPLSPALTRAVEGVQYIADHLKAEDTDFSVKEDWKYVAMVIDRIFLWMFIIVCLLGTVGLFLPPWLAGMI

SMILES | AC50 [1] [µM] | AC50 [2] [µM] | AC50 [3] [µM] | AC50 [4] [µM] | AC50 [5] [µM] | AC50 [6] [µM] | AC50 [7] [µM] | AC50 [8] [µM] | AC50 [9] [µM] | AC50 [10] [µM] | AC50 [11] [µM] | AC50 [12] [µM]
C[C@]1(COc2ccc(N3CCC(Oc4ccc(OC(F)(F)F)cc4)CC3)cc2)Cn2cc([N+](=O)[O-])nc2O1 | > 30 | > 30 | > 30 | > 10 | > 30 | > 30 | > 30 | > 10 | > 30 | > 30 | > 30 | 
CO/N=C(\C(=O)N[C@@H]1C(=O)N2C(C(=O)[O-])=C(C[n+]3cccc4c3CCC4)CS[C@H]12)c1csc(N)n1 [CEFPIROME] | > 30 |  | > 30 | > 30 |  | > 30 |  |  |  | > 30 | > 30 | > 30
CCOC(=O)c1ccc(OC(=O)CCCCCNC(=N)N)cc1 [GABEXATE] | > 30 |  | > 30 |  |  | > 30 |  |  |  | 1.49 |  | 
CCCCC/C=C\C/C=C\C/C=C\CCCCC(=O)O [GAMOLENIC ACID] | > 30 |  | > 30 |  |  | > 30 |  |  |  | > 30 |  | 
COCCOc1cnc(NS(=O)(=O)c2ccccc2)nc1 [GLYMIDINE] | > 30 |  | > 30 |  |  | > 30 |  |  |  | > 30 |  | 
CC(N)CCCC(C)(C)O (centres undefined) [HEPTAMINOL] | > 30 |  | > 30 |  |  | > 30 |  |  |  | > 30 |  | 
CCC(=O)O[C@]1(C(=O)COC(C)=O)CC[C@H]2[C@@H]3CCC4=CC(=O)CC[C@]4(C)[C@H]3[C@@H](O)C[C@@]21C [HYDROCORTISONE ACEPONATE] | > 30 |  | 19.3 |  |  | > 30 |  |  |  | > 30 |  | 
O=[N+]([O-])O[C@H]1CO[C@H]2[C@@H]1OC[C@H]2O[N+](=O)[O-] [ISOSORBIDE DINITRATE] | > 30 |  | > 30 |  |  | > 30 |  |  |  | > 30 |  | 
NC(=O)NCCC[C@H](N)C(=O)O [L-CITRULLINE] | > 30 |  | > 30 |  |  | > 30 |  |  |  | > 30 |  | 
CC(=O)O[C@H]1C[C@H](O[C@H]2[C@@H](O)C[C@H](O[C@H]3[C@@H](O)C[C@H](O[C@H]4CC[C@@]5(C)[C@H](CC[C@@H]6[C@@H]5C[C@@H](O)[C@]5(C)[C@@H](C7=CC(=O)OC7)CC[C@]65O)C4)O[C@@H]3C)O[C@@H]2C)O[C@H](C)[C@H]1O[C@@H]1O[C@H](CO)[C@@H](O)[C@H](O)[C@H]1O [LANATOSIDE C] | > 30 |  | > 30 |  |  | > 30 |  |  |  | > 30 |  | 
Nc1nc(N)nc(Nc2ccc([As]3SCC(CO)S3)cc2)n1 (centres undefined) [MELARSOPROL] | > 30 |  | 22.5 |  |  | 14.5 |  |  |  | > 30 |  | 
Cc1cc(CCN2CCN(c3cccc(Cl)c3)CC2)n[nH]1 [MEPIPRAZOLE] | 0.0358 |  | 26.3 |  |  | > 30 |  |  |  | > 30 |  | 
CC[N+](C)(CC)CCOC(=O)C1c2ccccc2Oc2ccccc21 [METHANTHELINE] | > 30 |  | 0.0287 |  |  | > 30 |  |  |  | 0.0126 |  | 
CO[C@H]1[C@@H](O)C[C@H](O[C@H]2[C@@H](O)C[C@H](O[C@H]3[C@@H](O)C[C@H](O[C@H]4CC[C@@]5(C)[C@H](CC[C@@H]6[C@@H]5C[C@@H](O)[C@]5(C)[C@@H](C7=CC(=O)OC7)CC[C@]65O)C4)O[C@@H]3C)O[C@@H]2C)O[C@@H]1C [METILDIGOXIN] | > 30 |  | > 30 |  |  | > 30 |  |  |  | > 30 |  | 
CC1(C)S[C@@H]2[C@H](NC(=O)[C@H](NC(=O)N3CCN(S(C)(=O)=O)C3=O)c3ccccc3)C(=O)N2[C@H]1C(=O)O [MEZLOCILLIN] | > 30 |  | > 30 |  |  | > 30 |  |  |  | > 30 |  | 
CCOC(=O)[C@H](CCc1ccccc1)N[C@@H](C)C(=O)N1Cc2cc(OC)c(OC)cc2C[C@H]1C(=O)O [MOEXIPRIL] | > 30 |  | > 30 |  |  | > 30 |  |  |  | > 30 |  | 
CC(c1ccc(Cl)c(Cl)c1)N1N=C(N)CC1=O (centres undefined) [MUZOLIMINE] | > 30 |  | > 30 |  |  | > 30 |  |  |  | > 30 |  | 
CCN(CC)CCOC(=O)C(Cc1cccc2ccccc12)CC1CCCO1 (centres undefined) [NAFRONYL] | 10.1 |  | 24.2 |  |  | > 30 |  |  |  | 0.199 |  | 
N[C@@H](Cc1c[nH]c2ccc(O)cc12)C(=O)O [OXITRIPTAN] | > 30 |  | > 30 |  |  | > 30 |  |  |  | > 30 |  | 
C1CNCCN1 [PIPERAZINE] | > 30 |  | > 30 |  |  | 28.4 |  |  |  | > 30 |  | 
c1cc(CN2CCCNCCNCCCNCC2)ccc1CN1CCCNCCNCCCNCC1 [PLERIXAFOR] | > 30 |  | > 30 |  |  | > 30 |  |  |  | > 30 |  | 
O=C(NC(Cc1cc(=O)[nH]c2ccccc12)C(=O)O)c1ccc(Cl)cc1 (centres undefined) [REBAMIPIDE] | > 30 |  | > 30 |  |  | > 30 |  |  |  | > 30 |  | 
CCCC(=O)O[C@H]1[C@H](C)O[C@@H](O[C@H]2[C@H](N(C)C)[C@@H](O)[C@H](O[C@H]3[C@@H](CC=O)C[C@@H](C)[C@@H](O)/C=C/C=C/C[C@@H](C)OC(=O)C[C@@H](O)[C@@H]3OC)O[C@@H]2C)C[C@@]1(C)OC(=O)CC [ROKITAMYCIN] | > 30 |  | > 30 |  |  | > 30 |  |  |  | > 30 |  | 
CCCCCCCCCCCCCCCCCC(=O)NCCCC[C@H](NC(=O)CC[C@@H](NC(=O)[C@H](C)NC(=O)[C@@H](C)O[C@H]1[C@H](O)[C@@H](CO)OC(O)[C@@H]1NC(C)=O)C(N)=O)C(=O)O (some centres undefined) [ROMURTIDE] | > 30 |  | 6.71 |  |  | > 3 |  |  |  | > 30 |  | 
CCOC(=O)[C@H](CCc1ccccc1)N[C@H]1CS[C@H](c2cccs2)CN(CC(=O)O)C1=O [TEMOCAPRIL] | > 30 |  | > 30 |  |  | > 10 |  |  |  | > 30 |  | 
COc1cc([C@@H]2c3cc4c(cc3[C@@H](O[C@@H]3O[C@@H]5CO[C@@H](c6cccs6)O[C@H]5[C@H](O)[C@H]3O)[C@H]3COC(=O)[C@H]23)OCO4)cc(OC)c1O [TENIPOSIDE] | > 30 |  | > 30 |  |  | > 30 |  |  |  | > 30 |  | 
